The record followed here is ChEMBL document CHEMBL1138323 (J Med Chem, 2007).

Data set [1] concerns Mus musculus. As to the kind of experiment: Induction of lethality in Swiss Webster Vancouver mouse dams at 3.6 mmol/kg, ip after 24 hrs. It counts as organism-based. To be noted: in vivo.
For data set [2], the species on record is Rattus norvegicus. As to the kind of experiment: Protective index, ratio of TD50 for Sprague-Dawley rat by rotarod test to ED50 for Sprague-Dawley rat by MES test. It counts as functional. A general note: In the rotarod test animals must keep their balance on a rotating rod.
The test system of data set [3] is Mus musculus. As to the kind of experiment: Teratogenic effect in Swiss Webster Vancouver mouse assessed as exencephaly at 167 mg/kg, ip. Format: toxicity, organism-based. More on the design: dose 167 mg/kg, route intraperitoneal. To be noted: in vivo.
Data set [4] in a line: Neurotoxicity in Albino CF1 mouse by rotarod test. It counts as toxicity, organism-based. Conditions: in vivo.
The subject of data set [5] is Mus musculus. Briefly: Teratogenic effect in Swiss Webster Vancouver mouse assessed as exencephaly at 261 mg/kg, ip. Format: toxicity, organism-based. Also noted: dose 261 mg/kg, route intraperitoneal. To be noted: in vivo.
Data set [6] is filed under the species Rattus norvegicus. Briefly: Protective index, ratio of TD50 for Sprague-Dawley rat by rotarod test to ED50 for Sprague-Dawley rat by scMET test. Format: functional.
For data set [7], the species on record is Mus musculus. As to the kind of experiment: Protective index, ratio of TD50 for Albino CF1 mouse to ED50 for Albino CF1 mouse by 6-Hz psychomotor seizure test at 32 mA current. Format: functional.
Data set [8] concerns Mus musculus. Briefly: Teratogenic effect in Swiss Webster Vancouver mouse assessed as embryo lethality at 167 mg/kg, ip. Also noted: dose 167 mg/kg, route intraperitoneal. It counts as toxicity, organism-based. Conditions: in vivo.
For data set [9], the species on record is Mus musculus. Briefly: Anticonvulsant activity in Albino CF1 mouse by 6-Hz psychomotor seizure test at 44 mA current. It counts as functional.
Data set [10] in a line: Solubility in water. Format: physicochemical.
The species named for data set [11] is Rattus norvegicus. Briefly: Anticonvulsant activity in Sprague-Dawley rat by maximal electroshock seizure test. It counts as functional. For orientation: In the maximal electroshock model the usual endpoint is tonic extension of the hind limbs.
Data set [12] concerns Mus musculus. Briefly: Teratogenic effect in Swiss Webster Vancouver mouse assessed as embryo lethality at 261 mg/kg, ip. Format: toxicity, organism-based. More on the design: dose 261 mg/kg, route intraperitoneal. To be noted: in vivo.
In data set [13] the test system is Rattus norvegicus. Briefly: Anticonvulsant activity in Sprague-Dawley rat by subcutaneous pentylenetetrazole test. Format: functional. Conditions: sc.
The species entered for data set [14] is Mus musculus. Briefly: Anticonvulsant activity in Albino CF1 mouse by 6-Hz psychomotor seizure test at 32 mA current. Format: functional.
Data set [15] has as its system Mus musculus. Briefly: Teratogenic effect in Swiss Webster Vancouver mouse assessed as embryo lethality at 520 mg/kg, ip. Format: toxicity, organism-based. More on the design: dose 520 mg/kg, route intraperitoneal. To be noted: in vivo.
In data set [16] the test system is Mus musculus. As to the kind of experiment: Teratogenic effect in Swiss Webster Vancouver mouse assessed as exencephaly at 520 mg/kg, ip. Format: toxicity, organism-based. Also noted: dose 520 mg/kg, route intraperitoneal. To be noted: in vivo.
The species entered for data set [17] is Mus musculus. Briefly: Protective index, ratio of TD50 for Albino CF1 mouse to ED50 for Albino CF1 mouse by 6-Hz psychomotor seizure test at 44 mA current. Format: functional.
Data set [18] is described as follows: Neurotoxicity in Sprague-Dawley rat by rotarod test. To be noted: in vivo. It counts as toxicity, organism-based.
Data set [19] deals with Mus musculus. Briefly: Teratogenic effect in Swiss Webster Vancouver mouse assessed as embryo lethality at 205 mg/kg, ip. Format: toxicity, organism-based. Also noted: dose 205 mg/kg, route intraperitoneal. To be noted: in vivo.
Data set [20] concerns Mus musculus. Briefly: Induction of lethality in Swiss Webster Vancouver mouse dams at 2.7 mmol/kg, ip after 24 hrs. Format: organism-based. Conditions: in vivo.
Data set [21] has as its system Mus musculus. Briefly: Teratogenic effect in Swiss Webster Vancouver mouse assessed as exencephaly at 205 mg/kg, ip. It counts as toxicity, organism-based. More on the design: dose 205 mg/kg, route intraperitoneal. Conditions: in vivo.
The test system of data set [22] is Mus musculus. As to the kind of experiment: Induction of lethality in Swiss Webster Vancouver mouse dams at 1.8 mmol/kg, ip after 24 hrs. Format: organism-based. To be noted: in vivo.
The subject of data set [23] is Mus musculus. Briefly: Teratogenic effect in Swiss Webster Vancouver mouse assessed as exencephaly at 336 mg/kg, ip. It counts as toxicity, organism-based. More on the design: dose 336 mg/kg, route intraperitoneal. Conditions: in vivo.
Data set [24] deals with Mus musculus. As to the kind of experiment: Teratogenic effect in Swiss Webster Vancouver mouse assessed as embryo lethality at 503 mg/kg, ip. It counts as toxicity, organism-based. More on the design: dose 503 mg/kg, route intraperitoneal. To be noted: in vivo.
A short description of data set [25]: Teratogenic effect in Swiss Webster Vancouver mouse assessed as embryo lethality at 336 mg/kg, ip. It counts as toxicity, organism-based. More on the design: dose 336 mg/kg, route intraperitoneal. To be noted: in vivo, read-out: Activity.
Data set [26] has as its system Mus musculus. Briefly: Teratogenic effect in Swiss Webster Vancouver mouse assessed as exencephaly at 503 mg/kg, ip. Also noted: dose 503 mg/kg, route intraperitoneal. Conditions: in vivo. Format: toxicity, organism-based.

In brackets after ≈: the same amount, converted by molar mass.

Usually TD50 stands for the dose at which the toxic effect under study appears in half of the subjects. A lower TD50 goes with greater toxicity. For orientation: ED50 means the midpoint of the dose-response relation. Low readings indicate greater potency, high ones weaker potency. The term solubility denotes the concentration that dissolves in the medium under given conditions. Low readings indicate a poorly soluble substance, high ones a readily soluble substance.

Consider `CCCC(CCC)C(=O)NC(N)=O`, for which the Activity entry is given as “Toxic” with Mus musculus [1]; 0.9% with Mus musculus [3]; 13.7% in the data set on Mus musculus [5]; 12.9% in the data set on Mus musculus [8]; 41.2% in the data set on Mus musculus [12]. Also, the “Ratio TD50/ED50” value is recorded as 4.3 in the data set filed under Rattus norvegicus [2], 3 in the data set listed under Rattus norvegicus [6] and less than 1.7 in the data set filed under Mus musculus [7]. In addition, the TD50 in data set [4] was more than 50 mg/kg. Moreover, the ED50 is 105 mg/kg in the data set listed under Mus musculus [9], 54 mg/kg in the data set listed under Rattus norvegicus [11], 77 mg/kg in the data set on Rattus norvegicus [13] and 58 mg/kg in the data set listed under Mus musculus [14]. Moreover, the solubility in data set [10] stood at 120 µg/mL (≈ 644 µM).
Regarding `CCC[C@H](C(=O)O)C(C)C`, the Activity came to 5.8% in the data set with Mus musculus [15] and 0% in the data set on Mus musculus [16].
In the case of `CCCC(C(=O)NC(N)=O)C(C)C` (racemic), the “Ratio TD50/ED50” value in the data set filed under Mus musculus [17] is given as less than 1.4; in the data set listed under Rattus norvegicus [2], 5.9; in the data set listed under Rattus norvegicus [6], 2.1; in the data set listed under Mus musculus [7] it was less than 2. Further, the TD50 in data set [4] was determined as 50 mg/kg; in data set [18] it was 95 mg/kg. For the same compound, in [10], the solubility turned out to be 130 µg/mL (≈ 698 µM). Also, the median effective dose (ED50) in the data set filed under Mus musculus [14] came to 42 mg/kg.
In the case of `CCCC(C(=O)O)C(C)C` (racemic), the values for the Activity in the data set on Mus musculus [15] and with Mus musculus [16] were 5.5% and 0%, respectively. The compound also registered a TD50 in data set [4] of more than 300 mg/kg. Further, the “Ratio TD50/ED50” value in the data set filed under Mus musculus [7] is reported as more than 2. The same compound came in with an ED50 in the data set listed under Mus musculus [14] of 149 mg/kg.
With `CCC(C)C(CC)C(=O)NC(N)=O` (configuration not stated) [CAPURIDE], the Activity was 39% with Mus musculus [19], “Toxic” with Mus musculus [20], 2.7% in the data set on Mus musculus [21] and “Toxic” in the data set on Mus musculus [22]. Moreover, the “Ratio TD50/ED50” value was less than 2.1 in the data set filed under Mus musculus [17], 4 in the data set filed under Rattus norvegicus [2], 6.9 in the data set listed under Rattus norvegicus [6] and less than 4.7 in the data set listed under Mus musculus [7]. In addition, the TD50 turned out to be 50 mg/kg in data set [4] and 97 mg/kg in [18]. The concentration in solution in [10] (solubility) was 280 µg/mL (≈ 1500 µM).
Regarding `CCC[C@H](C(=O)NC(N)=O)C(C)C`, the Activity in the data set with Mus musculus [23] amounted to 5.7%; with Mus musculus [19], 6.8%; in the data set on Mus musculus [24], 40.7%; in the data set on Mus musculus [21], 0.8%; in the data set with Mus musculus [26] it was 4.3%. Further, the “Ratio TD50/ED50” value is reported as less than 4 in the data set filed under Mus musculus [17], 6.5 in the data set listed under Rattus norvegicus [2], 3.2 in the data set listed under Rattus norvegicus [6] and less than 6.5 in the data set listed under Mus musculus [7]. In addition, the TD50 in data set [4] was determined as 100 mg/kg; in data set [18] it was 118 mg/kg. Moreover, the mortality in data set [25] was 10.2%. Further, the ED50 in the data set listed under Mus musculus [9] was determined as 75 mg/kg; in the data set filed under Rattus norvegicus [11], 18 mg/kg; with Rattus norvegicus [13], 37 mg/kg; in the data set listed under Mus musculus [14], 46 mg/kg.
Consider `CCC[C@H](C(N)=O)C(C)C`, for which the results for the “Ratio TD50/ED50” value in the data set listed under Rattus norvegicus [2] and in the data set listed under Rattus norvegicus [6] were 1.3 and 2.2, respectively. Besides, the TD50 in [18] came out at 83 mg/kg. In addition, the ED50 is 63 mg/kg in the data set filed under Rattus norvegicus [11] and 38 mg/kg in the data set with Rattus norvegicus [13].
Regarding `CCCCCCCC(=O)NC(N)=O`, the “Ratio TD50/ED50” value in the data set filed under Rattus norvegicus [2] is listed as 1.4; in the data set listed under Rattus norvegicus [6], 1.2. In data set [18], this compound registered a TD50 of more than 300 mg/kg. Also, in data set [10], the solubility is less than 50 µg/mL. Moreover, the ED50 in the data set filed under Rattus norvegicus [11] and with Rattus norvegicus [13] was more than 300 mg/kg throughout.
As to `CCC[C@@H](C(=O)NC(N)=O)C(C)C`, the Activity with Mus musculus [23] worked out at 15.4%; in the data set with Mus musculus [19], 7.1%; in the data set with Mus musculus [24] it was 65.7%; in the data set with Mus musculus [21] it was 0%; with Mus musculus [26], 17.5%. The “Ratio TD50/ED50” value is 2.1 in the data set filed under Mus musculus [17], 3.4 in the data set filed under Rattus norvegicus [2], 5.6 in the data set listed under Rattus norvegicus [6] and 2.7 in the data set filed under Mus musculus [7]. The TD50 in data set [4] amounted to 118 mg/kg; in data set [18], 124 mg/kg. In addition, the mortality in data set [25] is 54.4%. Moreover, the ED50 amounted to 56 mg/kg in the data set listed under Mus musculus [9], 36 mg/kg in the data set listed under Rattus norvegicus [11], 22 mg/kg in the data set with Rattus norvegicus [13] and 43 mg/kg in the data set filed under Mus musculus [14].
Turning to `CCCC(CCC)C(N)=O` [VALPROMIDE], in [10], the concentration in solution (solubility) was 3700 µg/mL (≈ 25800 µM).
The same measure, in the same setting: under `CCCC(CCC)C(=O)O` [VALPROIC ACID] stands 1300 µg/mL (≈ 9010 µM).
In the case of `CCC[C@@H](C(N)=O)C(C)C`, the “Ratio TD50/ED50” value in the data set listed under Rattus norvegicus [2] is on record as 1.7; in the data set filed under Rattus norvegicus [6], 3.7. This compound also yielded a TD50 in data set [18] of 82 mg/kg. Also, the ED50 stood at 47 mg/kg in the data set filed under Rattus norvegicus [11] and 22 mg/kg in the data set with Rattus norvegicus [13].
Regarding `CC(C)C(C(=O)NC(N)=O)C(C)C`, the “Ratio TD50/ED50” value in the data set filed under Mus musculus [17] is listed as less than 2; in the data set listed under Rattus norvegicus [2], 1.7; in the data set filed under Rattus norvegicus [6], 3.5; in the data set listed under Mus musculus [7], less than 2.3. This compound also came in with a TD50 in [4] of more than 50 mg/kg. Moreover, the figures for the ED50 in the data set listed under Mus musculus [9] and in the data set listed under Mus musculus [14] were 49 mg/kg and 43 mg/kg, respectively. In [10], this compound yielded a solubility of 270 µg/mL (≈ 1450 µM).
As to `CC(C)C(C(N)=O)C(C)C`, the “Ratio TD50/ED50” value turned out to be 1.4 in the data set filed under Rattus norvegicus [2] and 1.2 in the data set listed under Rattus norvegicus [6]. Also, in data set [18], the TD50 was determined as 72 mg/kg. In addition, the ED50 in the data set listed under Mus musculus [9] is more than 100 mg/kg; in the data set listed under Rattus norvegicus [11], 51 mg/kg; with Rattus norvegicus [13] it was 60 mg/kg; in the data set filed under Mus musculus [14] it was more than 100 mg/kg.
Regarding `CCC[C@@H](C(=O)O)C(C)C`, the Activity with Mus musculus [15] is 4.3%; in the data set with Mus musculus [16], 0%.
Take `CCCC(C(N)=O)C(C)C` (racemic): the “Ratio TD50/ED50” value in the data set listed under Rattus norvegicus [2] was 1.7; in the data set listed under Rattus norvegicus [6], 3.2. Besides, the TD50 in [18] was found to be 87 mg/kg. Further, the ED50 in the data set listed under Rattus norvegicus [11] was found to be 50 mg/kg; in the data set on Rattus norvegicus [13] it was 27 mg/kg.
